Assay results taken from paper PMC11351550, “Synthesis, Cytotoxicity and Antioxidant Activity Evaluation of Some Thiazolyl–Catechol Compounds” (Antioxidants, 2024).

Columns and labels:
Type in all cases: biochemical
[1] = Ferrous ion chelation assay (ferrozine)
Method: (§1) The stock solutions of the reference antioxidants (ascorbic acid, Trolox, EDTA-Na2) and compounds 3a–j were prepared by dissolving the solid powders in DMSO, obtaining 2 mM stock solutions. Following this, an additional set of solutions (0.2 mM) for each compound was obtained by dilution with DMSO. Absorption spectra of the tested compounds covering the range from 400 nm to 800 nm were recorded, indicating no absorption peaks near the wavelengths employed in the experiments. All measurements in the presented assays were made against blank samples. To quantify the activity of the compounds 3a–j, for the antiradical assays (DPPH and ABTS) and ferrous ion chelation, IC50 was calculated using Equation (1), while for the electron transfer assays (TAC, RP, FRAP and CUPRAC), the reference number of mole equivalent activity for each compound was calculated using Equation (2). (1) radical scavenging (%)=control absorbance−sample absorbance/control absorbance×100 (2) equivalents of control=sample absorbance/control absorbance
To evaluate the ability of compounds to chelate ferrous ions, an assay was performed using an adaptation of Dinis et al.’s initial report. The solutions of the tested compounds (2 mM) were mixed well with 500 µL of FeSO4 (0.125 mM), and 500 µL of ferrozine 0.315 mM. After 10 min, the absorbance of the samples was determined spectrophotometrically at λ = 562 nm. EDTA-Na2 was used as a positive control, due to its exceptional ion chelation properties.

[2] = DPPH radical-scavenging assay; settings: 30 min in the dark, 517 nm; read-out: IC50 against DPPH•
Method: as §1
The DPPH˙ (2,2-diphenyl-1-picrylhydrazyl) radical-scavenging assay, initially reported by Brand-Williams et al., relies on transferring a hydrogen atom from the antioxidant substrate being analyzed to the stable violet radical of DPPH˙. This action converts DPPH˙ into a nonradical stable yellow compound. The reduction in absorbance of the DPPH˙ at λ = 517 nm corresponds to the quantity of neutralized reagent. To perform the DPPH assay, we took 50, 75, 100, 125, and 150 µL of each sample from their 0.2 mM stock solutions, then we adjusted the volumes with DMSO to ensure all samples reached a uniform final volume. These solutions were mixed with 1 mL of DPPH reagent and incubated in the dark for 30 min, as presented in literature reports.

[3] = ABTS radical cation decolorization assay; settings: 10 min, pH 7.4, 734 nm; read-out: IC50 against ABTS•+
Method: as §1
The decolorization assay of the green ABTS^•+ (2,2′-azinobis-(3-ethylbenzothiazoline-6-sulfonic acid) to ABTS, based on the report of Re et al., was conducted following our group’s published report. The chemical stability of the ABTS^•+ reagent prior to use was checked at λ = 734 nm over one hour, ensuring a consistent absorption (approximately equal to 0.7). The reagent was prepared in potassium phosphate buffer (0.1 M, pH = 7.4) and activated overnight using MnO2 [17]. In all cuvettes, we added 100 μL of the tested compound solutions (0.2 mM) in increasing concentrations up to 200 µL and 2000 µL of the ABTS^•+ reagent. The resulting mixtures were thoroughly shaken for 10 min at room temperature, in the absence of light. The optical absorbance of the resulting mixtures was then measured by spectrophotometry at λ = 734 nm.

Structure (SMILES) | ferrous ion chelation percent ([1]; 0.25 µM) [%] | ferrous ion chelation percent ([1]; 0.5 µM) [%] | ferrous ion chelation percent ([1]; 1 µM) [%] | ferrous ion chelation percent ([1]; 1.5 µM) [%] | ferrous ion chelation percent ([1]; 2 µM) [%] | IC50 [2] [µM] | IC50 [3] [µM]
O=C([O-])CN(CCN(CC(=O)[O-])CC(=O)O)CC(=O)O.[Na+].[Na+] [EDTA–Na2, EDTA-Na2, reference compound] | 47.21 | 55.24 | 73.41 | 86.52 | 96.20 |  | 
Cc1c(C)c2c(c(C)c1O)CCC(C)(C(=O)O)O2 (centres unmarked) [Trolox, reference compound] |  |  |  |  |  | 38.1 | 15.9
O=C1O[C@H]([C@@H](O)CO)C(O)=C1O [Ascorbic acid, reference compound] |  |  |  |  |  | 53.5 | 
